Measurements from patent US9018208B2, “Heterocycles as potassium channel modulators” (Icagen Inc., priority 2007, dated 2015).
pEC50: −log10 of the molar value. Read-outs that look alike come from different tables or passages of the source.

Tested on: SH-SY5Y M-currents (KCNQ2, KCNQ3 and KCNQ5)
Assay: SH-SY5Y native cell line FLIPR assay (voltage-sensitive dye DiBAC)
Type: cell-based, mouse neuroblastoma, rat glioma hybrid cell line
Outline: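 Response is peak DiBAC fluorescence change, normalised to the maximum from a positive control agent, sampled every 30 s over 25 min. Before compound addition, SH-SY5Y cells differentiated with PGE1 plus isomethylbutylxanthine were dye-loaded for 1 h in EBSS with […] DiBAC.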

[1] = SH-SY5Y native cell line, FLIPR assay (Table 3), read-out: SH-SY5Y EC50
[2] = FLIPR assay, SH-SY5Y native cell line, Table 2, read-out: SH-SY5Y EC50
[3] = FLIPR assay, SH-SY5Y native cell line, Table 1, read-out: SH-SY5Y EC50

SMILES | pEC50 [2] | also measured
CC(C)(C)CC(=O)Nc1nc2ccc(F)cn2c1-c1ncccn1 [Compound 362, N-(6-fluoro-3-(pyrimidin-2-yl)imidazo[1,2-a]pyridin-2-yl)-3,3-dimethylbutanamide] |  | pEC50 [1]: 5.00 to 5.52
CC(C(=O)Nc1nc2ccc(F)cn2c1-c1ccc(C(F)(F)F)cc1)C(C)(C)C (centres unmarked) [Compound 234, N-(6-fluoro-3-(4-(trifluoromethyl)phenyl)imidazo[1,2-a]pyridin-2-yl)-2,3,3-trimethylbutanamide] | > 6.30 | 
Cc1cccc2nc(NC(=O)CC(C)(C)C)c(-c3nc4ccccc4s3)n12 [Compound 392, N-(3-(benzo[d]thiazol-2-yl)-5-methylimidazo[1,2-a]pyridin-2-yl)-3,3-dimethylbutanamide] |  | pEC50 [1]: 5.00 to 5.52
O=C(Nc1nc2ccc(F)cn2c1-c1cc(C(F)(F)F)ccn1)C1CCC(F)(F)CC1 [Compound 402, 4,4-difluoro-N-(6-fluoro-3-(4-(trifluoromethyl)pyridin-2-yl)imidazo[1,2-a]pyridin-2-yl)cyclohexanecarboxamide] |  | pEC50 [1]: > 6.30
CC(=O)OCC(C)(C)CC(=O)Nc1nc2ccc(F)cn2c1-c1ccc(OC(F)(F)F)cc1 [Compound 191, 4-(6-fluoro-3-(4-(trifluoromethoxy)phenyl)imidazo[1,2-a]pyridin-2-ylamino)-2,2-dimethyl-4-oxobutyl acetate] | 5.00 to 5.52 | 
O=C(CC1CCCC1)Nc1nc2ccc(F)cn2c1-c1ccc(C(F)(F)F)cc1 [Compound 156, 2-cyclopentyl-N-(6-fluoro-3-(4-(trifluoromethyl)phenyl)imidazo[1,2-a]pyridin-2-yl)acetamide] | > 6.30 | 
O=C(Cc1ccc(F)cc1)Nc1nc2ccc(C(F)(F)F)cn2c1CC1CCCCC1 [Compound 40, N-(3-(cyclohexylmethyl)-6-(trifluoromethyl)imidazo[1,2-a]pyridin-2-yl)-2-(4-fluorophenyl)acetamide] |  | pEC50 [3]: > 6.30
Cc1c(NC(=O)CC(C)(C)C)nc2ccc(F)cn12 [Compound 423, N-(6-fluoro-3-methylimidazo[1,2-a]pyridin-2-yl)-3,3-dimethylbutanamide] |  | pEC50 (FLIPR assay, SH-SY5Y native cell line, Table 5, read-out: SH-SY5Y EC50): 5.00 to 5.52
N#Cc1ccc2nc(NC(=O)Cc3ccc(F)cc3)c(-c3ccc(C(F)(F)F)cc3)n2c1 [Compound 260, N-(6-cyano-3-(4-(trifluoromethyl)phenyl)imidazo[1,2-a]pyridin-2-yl)-2-(4-fluorophenyl)acetamide] | > 6.30 | 
O=C(Nc1nc2ccc(C(F)(F)F)nn2c1C1CCCC1)c1ccc(F)c(F)c1 [Compound 447, N-(3-cyclopentyl-6-(trifluoromethyl)imidazo[1,2-b]pyridazin-2-yl)-3,4,-difluorobenzamide] |  | pEC50 (SH-SY5Y native cell line, FLIPR assay (Table 6), read-out: SH-SY5Y EC50): 5.52 to 6.30
O=C(Nc1nc2ccc(F)cn2c1-c1nc2ccccc2s1)C1CCCC1 [Compound 378, N-(3-(benzo[d]thiazol-2-yl)-6-fluoroimidazo[1,2-a]pyridin-2-yl)cyclopentanecarboxamide] |  | pEC50 [1]: 5.00 to 5.52
O=C(Nc1nc2ccc(F)cn2c1-c1cc(C(F)(F)F)ccn1)C1CC1(F)F (centres unmarked) [Compound 412, 2,2-difluoro-N-(6-fluoro-3-(4-(trifluoromethyl)pyridin-2-yl)imidazo[1,2-a]pyridin-2-yl)cyclopropanecarboxamide] |  | pEC50 [1]: 5.00 to 5.52
CC1(CC(=O)Nc2nc3ccc(C(F)(F)F)cn3c2C2CCCC2)CCCC1 [Compound 56, N-(3-cyclopentyl-6-(trifluoromethyl)imidazo[1,2-a]pyridin-2-yl)-2-(1-methylcyclopentyl)acetamide] |  | pEC50 [3]: > 6.30
O=C(Cc1ccc(F)cc1)Nc1cn2c(C(F)(F)F)cccc2n1 [Compound 13, 2-(4-fluorophenyl)-N-(5-(trifluoromethyl)imidazo[1,2-a]pyridin-2-yl)acetamide] |  | pEC50 [3]: 5.00 to 5.52
O=C(Cc1ccccc1)Nc1nc2ccc(C(F)(F)F)cn2c1C1CCCC1 [Compound 49, N-(3-cyclopentyl-6-(trifluoromethyl)imidazo[1,2-a]pyridin-2-yl)-2-phenyl acetamide] |  | pEC50 [3]: > 6.30
CC(C)(C)Cc1c(NC(=O)Cc2ccc(Oc3ccccc3)cc2)nc2ccc(C(F)(F)F)cn12 [Compound 22, N-(3-neopentyl-6-(trifluoromethyl)imidazo[1,2-a]pyridin-2-yl)-2-(4-phenoxyphenyl)acetamide] |  | pEC50 [3]: > 6.30
O=C(Cc1ccccc1)Nc1nc2ccc(F)cn2c1-c1ccc(OC(F)(F)F)c(F)c1 [Compound 295, N-(6-fluoro-3-(3-fluoro-4-(trifluoromethoxy)phenyl)imidazo[1,2-a]pyridin-2-yl)-2-phenylacetamide] | > 6.30 | 
CC(C)(C)[C@H](O)C(=O)Nc1nc2ccc(F)cn2c1-c1ccc(C(F)(F)F)cc1 [Compound 341, (S)—N-(6-fluoro-3-(4-(trifluoromethyl)phenyl)imidazo[1,2-a]pyridin-2-yl)-2-hydroxy-3,3-dimethylbutanamide] | 5.52 to 6.30 | 
O=C(CC(F)(F)F)Nc1nc2ccc(F)cn2c1-c1nc2ccccc2s1 [Compound 381, N-(3-(benzo[d]thiazol-2-yl)-6-fluoroimidazo[1,2-a]pyridin-2-yl)-3,3,3-trifluoropropanamide] |  | pEC50 [1]: 5.52 to 6.30; pEC50 (read-out: SH-SY5Y_EC50): 5.67
CC(CC(=O)Nc1nc2ccc(F)cn2c1-c1cc(C(F)(F)F)ccn1)C(F)(F)F (centres unmarked) [Compound 401, 4,4,4-trifluoro-N-(6-fluoro-3-(4-(trifluoromethyl)pyridin-2-yl)imidazo[1,2-a]pyridin-2-yl)-3-methylbutanamide] |  | pEC50 [1]: 5.52 to 6.30
CC(C)(C)CC(=O)Nc1nc2ccc(C#N)cn2c1-c1ccc(C(F)(F)F)cc1 [Compound 259, N-(6-cyano-3-(4-(trifluoromethyl)phenyl)imidazo[1,2-a]pyridin-2-yl)-3,3-dimethylbutanamide] | > 6.30 | 
CC(C)(C)Cc1c(NC(=O)Cc2ccc(F)cc2)nc2ccc(F)cn12 [Compound 17, N-(6-fluoro-3-neopentylimidazo[1,2-a]pyridin-2-yl)-2-(4-fluorophenyl) acetamide] |  | pEC50 [3]: > 6.30
CC(C)(C)CC(=O)Nc1nc2c(F)cc(F)cn2c1-c1ccc(OC(F)(F)F)cc1 [Compound 262, N-(6,8-difluoro-3-(4-(trifluoromethoxy)phenyl)imidazo[1,2-a]pyridin-2-yl)-3,3-dimethylbutanamide] | > 6.30 | 
CC(CC(=O)Nc1nc2ccccn2c1CC(C)(C)C)C(F)(F)F (centres unmarked) [Compound 86, 4,4,4-trifluoro-3-methyl-N-(3-neopentylimidazo[1,2-a]pyridin-2-yl)butanamide] |  | pEC50 [3]: 5.52 to 6.30
O=C(CC1CCCC1)Nc1nc2ccccn2c1-c1ccc(F)cc1 [Compound 222, 2-cyclopentyl-N-(3-(4-fluorophenyl)imidazo[1,2-a]pyridin-2-yl)acetamide] | 5.52 to 6.30 | 
O=C(CCC1CCCC1)Nc1nc2ccc(F)cn2c1-c1ccc(C(F)(F)F)cc1 [Compound 220, 3-cyclopentyl-N-(6-fluoro-3-(4-(trifluoromethyl)phenyl)imidazo[1,2-a]pyridin-2-yl)propanamide] | > 6.30 | 
O=C(Nc1nc2ccc(F)cn2c1-c1ccc(OC(F)(F)F)cc1)C1Cc2ccccc2C1 [Compound 292, N-(6-fluoro-3-(4-(trifluoromethoxy)phenyl)imidazo[1,2-a]pyridin-2-yl)-2,3-dihydro-1H-indene-2-carboxamide] | 5.52 to 6.30 | 

Further lines, with some results ahead:

pEC50 [2] | SMILES | also measured
> 6.30 | CC(C)(C)CC(=O)Nc1nc2cc(Cl)c(Cl)cn2c1-c1ccc(C(F)(F)F)cc1 [Compound 233, N-(6,7-dichloro-3-(4-(trifluoromethyl)phenyl)imidazo[1,2-a]pyridin-2-yl)-3,3-dimethylbutanamide] | 
5.52 to 6.30 | O=C(CC(F)(F)F)Nc1nc2ccc(F)cn2c1-c1cccc(Cl)c1 [Compound 284, N-(3-(3-chlorophenyl)-6-fluoroimidazo[1,2-a]pyridin-2-yl)-3,3,3-trifluoropropanamide] | 
> 6.30 | O=C(CC1CCCC1)Nc1nc2ccc(F)cn2c1-c1cccc(OC(F)(F)F)c1 [Compound 264, 2-cyclopentyl-N-(6-fluoro-3-(3-(trifluoromethoxy)phenyl)imidazo[1,2-a]pyridin-2-yl)acetamide] | 
5.00 to 5.52 | CC(CC(=O)Nc1nc2ncccn2c1-c1cccc(Cl)c1)C(F)(F)F (centres unmarked) [Compound 331, N-(3-(3-chlorophenyl)imidazo[1,2-a]pyrimidin-2-yl)-4,4,4-trifluoro-3-methylbutanamide] | 
> 6.30 | O=C(Cc1cccc(Cl)c1)Nc1nc2ccc(F)cn2c1-c1ccc(OC(F)(F)F)c(F)c1 [Compound 298, 2-(3-chlorophenyl)-N-(6-fluoro-3-(3-fluoro-4-(trifluoromethoxy)phenyl)imidazo[1,2-a]pyridin-2-yl)acetamide] | 
> 6.30 | O=C(CC1CCCC1)Nc1nc2ccc(F)cn2c1-c1cccc(Cl)c1 [Compound 302, N-(3-(3-chlorophenyl)-6-fluoroimidazo[1,2-a]pyridin-2-yl)-2-cyclopentylacetamide] | 
> 6.30 | O=C(Cc1ccc(Cl)cc1)Nc1nc2ccc(F)cn2c1-c1cccc(Cl)c1 [Compound 301, 2-(4-chlorophenyl)-N-(3-(3-chlorophenyl)-6-fluoroimidazo[1,2-a]pyridin-2-yl)acetamide] | 
5.52 to 6.30 | O=C(CCC(F)(F)F)Nc1nc2ccc(F)cn2c1-c1cccc(Cl)c1 [Compound 285, N-(3-(3-chlorophenyl)-6-fluoroimidazo[1,2-a]pyridin-2-yl)-4,4,4-trifluorobutanamide] | 
5.00 to 5.52 | CC(CC(=O)Nc1nc2ncc(Cl)cn2c1-c1cccc(Cl)c1)C(F)(F)F (centres unmarked) [Compound 321, N-(6-chloro-3-(3-chlorophenyl)imidazo[1,2-a]pyrimidin-2-yl)-4,4,4-trifluoro-3-methylbutanamide] | 
5.52 to 6.30 | CC(C)C(C)C(=O)Nc1nc2ccc(F)cn2c1-c1cccc(C(F)(F)F)c1 (centres unmarked) [Compound 288, N-(6-fluoro-3-(3-(trifluoromethyl)phenyl)imidazo[1,2-a]pyridin-2-yl)-2,3-dimethylbutanamide] | 
